Data set [1] deals with VEGF. The data set can be described thus: qPCR of HIF-1α target gene VEGF. The format is cell-based, murine. The settings on record: IOX2 or FG-4592 treatment, vs untreated controls. How it is done:
(§1) Total RNA was isolated using ReliaPrep™ RNA Miniprep Systems (Promega), and reverse transcribed to cDNA using the iScript cDNA synthesis kit (BioRad), according to the Manufacturer's instructions. Real-Time Quantitative PCR was performed on 10 ng of cDNA template, 0.2 µM primers, and GoTaq® qPCR Master Mix (Promega) in 20 µl final volume using a StepOnePlus® Real-Time PCR System (Applied Biosystem). […] RPL13 was used as the housekeeping gene. The amplification program consisted in an initial denaturation at 95°C for 3 minutes, followed by 40 cycles of 5 seconds each at 95°C and 30 seconds at 57°C; WNT7a was amplified at 53°C. Relative quantification of target genes was performed in triplicate and calculated by the equation 2^-ΔΔCt.
as §1, with “ReliaPrepTM” for “ReliaPrep™”, “2-ΔΔCt.” for “2^-ΔΔCt.”
(In qPCR the cycle at which signal appears reflects the starting amount.)

Data set [2] deals with MHC. In words: Western blot of MHC in WNT7a-KO versus wild type myoblasts at end of differentiation. In kind it is cell-based, murine. To be noted: WNT7a-KO vs wild type cells, inhibitor pre-treated. How it is done: Cells were collected after enzymatic digestion with trypsin (Merck), lysed by sonication and centrifuged at 800 xg for 10 minutes. Supernatant was used to determine total protein content with the BCA Protein Assay Kit (Pierce), according to the manufacturer's instructions.
Proteins were denaturated by boiling for 10 minutes in sample buffer (0.6 g/100 mL Tris, 2 g/100 mL SDS, 10% glycerol, 1% 2-mercaptoethanol, pH 6.8) and loaded into 10% SDS-PAGE gel, then transferred onto a nitrocellulose membrane (Trans-blot, Bio-Rad Laboratories) by electroblotting. Nitrocellulose membranes were incubated with a blocking solution containing 5% (w/v) non-fat dry milk or 5% (w/v) BSA (Merck) in Tris-buffer saline with 0.1% Tween® 20 (TBS-T) for 1 hour. […] Membranes were washed three times for 10 minutes with TBS-T, and then incubated with the appropriate anti-mouse, anti-rabbit, or anti-goat HRP-conjugated secondary antibodies (Dako, Agilent Technologies), 1:2000 dilution, for 1 hour at room temperature. After three washes for 10 minutes with TBS-T, the immunoreactive bands were visualized using the enhanced chemiluminescence detection kit reagents (ECL Advance, GeHealthcare), according to the manufacturer's instructions.
Therefore, WNT7a silencing was conducted by Crispr/Cas9 genome editing in C2C12 murine myoblasts and the effects on myogenesis were evaluated.

For data set [3], the system named is C2C12 murine myoblasts. In words: RealTime-Glo MT Cell Viability Assay. The settings on record: at IC50 concentrations (50 µM IOX2, 40 µM FG-4592), 24 hours, vs untreated controls.
Experimental: RealTime-Glo™ kits MT Cell Viability Assay (Promega) was used to investigate the effects of IOX2 and FG-4592 treatment on cell viability. Briefly, 5 x 10^3 C2C12 murine myoblasts were seeded in a 96 well plate and incubated for 24 hours (T0) with MT Cell Viability Substrate (1:1000 dilution) and NanoLuc® Enzyme (1:1000 dilution). Then, 50 µM IOX2 or 40 µM FG-4592 were added to the cell cultures and incubated for other 24 hours before luminescence analysis.
RealTime-Glo™ kits MT Cell Viability Assay (Promega) was used to investigate the effects of PLG treatment on cell viability. Briefly, 5 x 10^3 C2C12 murine myoblasts were seeded in a 96 well plate and incubated for 24 hours (T0) with MT Cell Viability Substrate (1:1000 dilution) and NanoLuc® Enzyme (1:1000 dilution). Then, each PLG inhibitor was added at its EC50 to the cell cultures and incubated for other 24 hours before luminescence analysis.
Data set [4] concerns PHDs. The data set can be described thus: ODD-luciferase reporter assay (Dual-Glo) for PHDs inhibition. The settings on record: C2C12 myoblasts transfected with ODD-luciferase-pcDNA3; 24 hours at 10, 25, 50, 100 µM, normoxic conditions; linear regression. (A reporter such as luciferase makes a cellular process visible.)
Experimental: The IC50 was calculated using a Dual-Glo® Luciferase Assay System kit (Promega) that allows a high-throughput analysis of mammalian cells containing the Firefly (Luciferase-pcDNA3, ODD-Luciferase-pcDNA3) and Renilla (pRL-CMV) luciferase reporters. Briefly, 5 x 10^3 cells per well were seeded in a 96-well plate, and then transfected for 24 hours with a Luciferase-pcDNA3 or an ODD-Luciferase-pcDNA3 (80 ng), containing the firefly gene reporter. A co-transfection with pRL-CMV (8 ng), containing the renilla gene reporter, was performed as an internal control, according to the ViaFect Transfection Reagent® protocol (Promega). After transfection, cells were treated with 10, 25, 50, and 100 µM IOX2 or FG-4592 (R oxadustat) for 24 hours, and then an equal volume of Dual-Glo® Luciferase Reagent was added to each well, incubated at room temperature for 30 minutes, and then analyzed with a Varioskan™ LUX Multimode Microplate Reader (ThermoFisher Scientific). Then, an equal volume of Dual-Glo® Stop & Glo® Reagent was added to each well in order to quench the luminescence from the firefly reaction and to provide the substrate for the renilla luciferase. The mixture was incubated for 30 minutes before analysis. The IC50 values were calculated by linear regression.
To this purpose, the IC50 of both compounds was determined by transiently co-transfecting C2C12 myoblasts with the ODD-luciferase-pcDNA3 plasmid, containing the Oxygen Dependent Domain (ODD) of HIF-1α, and with the pRL-CMV plasmid, as the internal control (Figure 4, panel A). Then, transfected cells were treated for 24 hours with IOX2 or FG-4592 at different concentrations (10, 25, 50, and 100 µM) under normoxic conditions, and the emitted luminescence was collated to untreated controls.
The EC50 was calculated using a Dual-Glo® Luciferase Assay System kit (Promega) that allows a high-throughput analysis of mammalian cells containing the Firefly (Luciferase-pcDNA3, ODD-Luciferase-pcDNA3) and Renilla (pRL-CMV) luciferase reporters. Briefly, 5 x 10^3 cells per well were seeded in a 96-well plate, and then transfected for 24 hours with a Luciferase-pcDNA3 or an ODD-Luciferase-pcDNA3 (80 ng), containing the firefly gene reporter. A co-transfection with pRL-CMV (8 ng), containing the renilla gene reporter, was performed as an internal control, according to the ViaFect Transfection Reagent® protocol (Promega). […] Then, an equal volume of Dual-Glo® Stop & Glo® Reagent was added to each well in order to quench the luminescence from the firefly reaction and to provide the substrate for the renilla luciferase. The mixture was incubated for 30 minutes before analysis. The EC50 values were calculated by linear regression.
The EC50 of each compound was determined by transiently co-transfecting C2C12 myoblasts with the ODD-luciferase-pcDNA3 plasmid, containing the Oxygen Dependent Domain (ODD) of HIF-1α, and with the pRL-CMV plasmid, as the internal control (Figure 12, panel A).
Data set [5] deals with WNT7a promoter. The data set can be described thus: Nano-Glo luciferase reporter assay of pNL1.1-WNT7a promoter activity. In kind it is cell-based, murine. The settings on record: 24 hours at IC50 working concentrations. How it is done:
Genomic DNA was extracted from C2C12 murine myoblast and used as the template for WNT7a promoter amplification. The PCR reaction was prepared using a Phusion High-Fidelity kit (New England Biolabs) and employing the following primers: forward 5'-[…]-3' (SEQ ID NO:1), containing KpnI enzymatic site, and reverse 5'-[…]-3' (SEQ ID NO:2) containing the HindIII enzymatic site. The PCR fragment and the vector pNL1.1(Nluc) (Promega) were digested with KnpI and HindIII (Promega) restriction enzymes for 2 hours at 37°C and, then, they were purified from agarose gel using Wizard® SV Gel and PCR Clean-Up System (Promega). The fragment was inserted into the multiple cloning site of pNL1.1 vector using T4 Ligase Fast (Promega) and the reaction was incubated for 1 hour at room temperature. The presence of the insert in the plasmid was finally verified by DNA sequencing.
Briefly, cells were seeded in a 96-well plate at a concentration of 5 x 10^3 cells per well, transfected with the pNL1.1 or pNL1.1WNT7a_promoter (90 ng) plasmids and pGL4.54(luc2/TK) (10 ng) plasmid as internal control, according to ViaFect Transfection Reagent® protocol (Promega), and then incubated for 24 hours. […] To turn off the luminescence of the Firefly luciferase and provide the substrate for the Nanoluc, an equal volume of NanoDLR™ Stop&Glo® Reagent was added to the mixture and incubated for 30 minutes before analysis.

In data set [6] the test system is C2C12 murine myoblasts. The data set can be described thus: CellTox Cytotoxicity Assay. To be noted: at IC50 concentrations (50 µM IOX2, 40 µM FG-4592), 24 hours, vs untreated controls.
Experimental: To assess PHDs inhibitors cytotoxicity, 5 x 10^3 C2C12 murine myoblasts were seeded in a 96-well plate.

SMILES strings stand for the structures.

Turning to `Cc1nc(C(=O)NCC(=O)O)c(O)c2ccc(Oc3ccccc3)cc12` [FG-4592, Roxadustat], the “increase in the expression of VEGF” value in data set [1] came to 2.1 fold. Further, the “decrease of MHC expression” value in data set [2] is reported as 36%. Further, the Cell viability result in data set [3] was “no significant changes”. The compound further registered an IC50 in data set [4] of 40 µM. Also, in data set [5], the “WNT7a promoter activation, luminescence increase” value is given as 1.3 fold. The Cell toxicity result in data set [6] is “no significant changes”.

In the case of `O=C(O)CNC(=O)c1c(O)c2ccccc2n(Cc2ccccc2)c1=O` [IOX2], the “increase in the expression of VEGF” value in data set [1] was 1.6 fold. Moreover, the “decrease of MHC expression” value in data set [2] amounted to 18%. For the same compound, the Cell viability entry in data set [3] is “no significant changes”. Besides, the IC50 in data set [4] amounted to 50 µM. Besides, the “WNT7a promoter activation, luminescence increase” value in data set [5] came out at 1.4 fold. Also, the Cell toxicity entry in data set [6] is reported as “no significant changes”.

For orientation: IC50 means the concentration needed to halve the response being measured. High values mean weaker potency, low ones greater potency.
